Measurements taken from US20050245399A1, “Pyrazole derivatives as herbicidal compositions containing them” (ISHIHARA SANGYO KAISHA, LTD., priority 2004, published 2005).

Assays:
Assay type in all cases: in vivo
[1] = system: soybean (Glycine max Merr.), GLXMA; assay: Test Example 2 post-emergence (foliage treatment) herbicidal activity, GLXMA
Outline: (§1)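 Each species was evaluated for growth suppression by eye, 0% matching untreated and 100% meaning death, some 20 to 23 days after a single post-emergence foliar treatment applied in 500 L/ha of water carrying 0.1% (v/v) agricultural spreader.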

[2] = system: common cocklebur (Xanthium strumarium L.), XANST; assay: Test Example 2 post-emergence (foliage treatment) herbicidal activity, XANST
Source text: Upland field soil was put into a 1/170,000 ha pot, and seeds of various plants were sown. Then, when the plants reached predetermined leaf stages {1. barnyardgrass (Echinochloa crus-galli L.), ECHCG: 1.1-2.1 leaf stage, 2. crabgrass (Digitaria sanguinalis L.), DIGSA: 1.0-2.0 leaf stage, 3. green foxtail (Setaria viridis L.), SETVI: 1.0-2.2 leaf stage, 4. redroot pigweed (Amaranthus retroflexus L.), AMARE: 0.1-1.5 leaf stage, 5. prickly sida (Sida spinosa L.), SIDSP: 0.1-0.6 leaf stage, 6. velvetleaf (Abutilon theophrasti), ABUTH: 0.1-0.6 leaf stage, 7. common cocklebur (Xanthium strumarium L.), XANST: 0.1 leaf stage, 8. rice (Oryza sativa L.), ORYSA; 1.0-2 leaf stage, 9. wheat (Triticum aestivum L.), TRZAX: 2.3-3.5 leaf stage, 10. corn (Zea mays L.), ZEAMXN 2.1-2.6 leaf stage, 11. soybean (Glycine max Merr.), GLXMA: primary leaf stage}, a wettable powder or emulsifiable concentrate having the compound of the present invention formulated in accordance with a usual formulation method, was weighed so that the active ingredient would be a predetermined amount, and diluted with water in an amount of 500 L/ha. To the diluted solution, 0.1% (v/v) of an agricultural spreader was added. The herbicide adjusted was applied by a small size sprayer for foliage treatment. On the 20th to 23rd day after the application of the herbicide, the growth of the respective plants was visually observed, and the herbicidal effects were evaluated by growth controlling degrees (%) ranging from 0 (equivalent to the untreated control) to 100 (complete kill), whereby the results shown in Table 5, were obtained. Compound Nos. in Table 5 correspond to Compound Nos. in Table 1 and 2 given hereinbefore.

[3] = system: corn (Zea mays L.): ZEAMX; assay: Test Example 1 pre-emergence herbicidal activity, ZEAMX; details: Rate 63 g a.i./ha, visually observed 20th to 23rd day after application
Outline: (§2)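 pots, upland field soil; sow; +1 d spray compound (WP or EC, a.i. at set dose, 500 L/ha water), pre-emergence; visual % growth control d20–23 (0 untreated, 100 complete kill).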

[4] = system: prickly sida (Sida spinosa L.), SIDSP; assay: Test Example 2 post-emergence (foliage treatment) herbicidal activity, SIDSP
Outline: as §1

[5] = system: crabgrass (Digitaria sanguinalis L.): DIGSA; assay: Test Example 1 pre-emergence herbicidal activity, DIGSA; details: Rate 63 g a.i./ha, visually observed 20th to 23rd day after application
Outline: as §2

[6] = system: redroot pigweed (Amaranthus retroflexus L.): AMARE; assay: Test Example 1 pre-emergence herbicidal activity, AMARE; details: Rate 63 g a.i./ha, visually observed 20th to 23rd day after application
Outline: as §2

[7] = system: barnyardgrass (Echinochloa crus-galli L.): ECHCG; assay: Test Example 1 pre-emergence herbicidal activity, ECHCG; details: Rate 63 g a.i./ha, visually observed 20th to 23rd day after application
Outline: as §2

[8] = system: crabgrass (Digitaria sanguinalis L.), DIGSA; assay: Test Example 2 post-emergence (foliage treatment) herbicidal activity, DIGSA
Outline: (§3)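 Herbicide was applied to foliage of seedlings raised in upland field soil: redroot pigweed at 0.1-1.5 leaves, barnyardgrass at 1.1-2.1, crabgrass at 1.0-2.0, rice at 1.0-2. A predetermined active ingredient amount was carried in 500 L/ha water with 0.1% (v/v) spreader; control (%) was assessed by eye after 20-23 days.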

[9] = system: redroot pigweed (Amaranthus retroflexus L.), AMARE; assay: Test Example 2 post-emergence (foliage treatment) herbicidal activity, AMARE
Outline: as §3

[10] = system: rice (Oryza sativa L.): ORYSA; assay: Test Example 1 pre-emergence herbicidal activity, ORYSA; details: Rate 63 g a.i./ha, visually observed 20th to 23rd day after application
Outline: as §2

[11] = system: rice (Oryza sativa L.: ORYSA); assay: Test Example 3 water application herbicidal activity (paddy), transplanted rice ORYSA; details: 63 g a.i./ha, water application 4th day after transplantation of 2 leaf stage rice, visually observed 21st day after application; 0 = untreated control, 100 = complete kill
Outline: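 Flooded paddy-soil pots in greenhouse; ECHOR and SCPJO sown, SAGPY tubers planted a day later, compound applied into 3–4 cm water at weeds' 0.5-leaf stage. Rice transplanted at 2-leaf stage, treated day 4 after transplanting. Visual growth control 0–100% at 14 days (weeds) and 21 days (rice) after application.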

[12] = system: common cocklebur (Xanthium strumarium L.): XANST; assay: Test Example 1 pre-emergence herbicidal activity, XANST; details: Rate 63 g a.i./ha, visually observed 20th to 23rd day after application
Source text: Upland field soil was put into a 1/170,000 ha pot, and seeds of various plants {1. barnyardgrass (Echinochloa crus-galli L.): ECHCG, 2. crabgrass (Digitaria sanguinalis L.): DIGSA, 3. green foxtail (Setaria viridis L.): SETVI, 4. redroot pigweed (Amaranthus retroflexus L.): AMARE, 5. prickly sida (Sida spinosa L.): SEDSP, 6. velvetleaf (Abutilon theophrasti): ABUTH, 7. common cocklebur (Xanthium strumarium L.): XANST, 8. rice (Oryza sativa L.): ORYSA, 9. wheat (Triticum aestivum L.): TRZAX, 10. corn (Zea mays L.): ZEAMX, 11. soybean (Glycine max Merr.): GLXMA} were sown. Then, one day after the sowing, a wettable powder or emulsifiable concentrate having the compound of the present invention formulated in accordance with a usual formulation method, was weighed so that the active ingredient would be a predetermined amount and diluted with water in an amount of 500 L/ha. The herbicide adjusted was applied by a small size sprayer for preemergence treatment. On the 20th to 23rd day after the application of the herbicide, the growth of the respective plants was visually observed, and the herbicidal effects were evaluated by growth controlling degrees (%) ranging from 0 (equivalent to the untreated control) to 100 (complete kill), whereby the results shown in Table 4, were obtained. Compound Nos. in Table 4 correspond to Compound Nos. in Table 1 and 2 given hereinbefore.

| SMILES | growth controlling degree, GLXMA ([1]; 63 g a.i./ha) | growth controlling degree, XANST ([2]; 63 g a.i./ha) | Pre-emergence Herbicidal Activity ZEAMX (growth controlling degree) [3] | growth controlling degree, SIDSP ([4]; 63 g a.i./ha) | Pre-emergence Herbicidal Activity DIGSP (growth controlling degree) [5] | Pre-emergence Herbicidal Activity AMARE (growth controlling degree) [6] | Pre-emergence Herbicidal Activity ECHCG (growth controlling degree) [7] | growth controlling degree, DIGSP ([8]; 63 g a.i./ha) | growth controlling degree, AMARE ([9]; 63 g a.i./ha) | Pre-emergence Herbicidal Activity ORYSA (growth controlling degree) [10] | growth controlling degrees (%) ORYSA [11] | Pre-emergence Herbicidal Activity XANST (growth controlling degree) [12] | growth controlling degree, GLXMA ([1]; 125 g a.i./ha) | growth controlling degree, XANST ([2]; 125 g a.i./ha) | growth controlling degree, SIDSP ([4]; 125 g a.i./ha) | growth controlling degree, DIGSP ([8]; 125 g a.i./ha) | growth controlling degree, AMARE ([9]; 125 g a.i./ha) |
| --- | --- | --- | --- | --- | --- | --- | --- | --- | --- | --- | --- | --- | --- | --- | --- | --- | --- |
| COc1c(Cl)cc(F)c(-c2nn(C)c(OC(F)F)c2Cl)c1N(C=O)CC(=O)c1ccccc1 [Compound 1-12] | 40% | 50% | 10% | 100% | 30% | 100% | 70% | 30% | 100% | 40% | 35% | 50% |  |  |  |  |  |
| COc1c(Cl)cc(F)c(-c2nn(C)c(OC(F)F)c2Cl)c1NC(C)C [Compound 1-59] | 95% | 100% | 10% | 100% | 100% | 100% | 60% | 98% | 100% | 50% | 40% |  |  |  |  |  |  |
| COc1c(Cl)cc(F)c(-c2nn(C)c(OC(F)F)c2Cl)c1N(C(=O)C=C(C)C)C(=O)C=C(C)C [Compound 1-11] | 50% | 30% | 30% | 100% | 40% | 100% | 70% | 40% | 100% | 40% | 35% | 30% |  |  |  |  |  |
| COc1c(Cl)cc(F)c(-c2nn(C)c(OC(F)F)c2Cl)c1N(C=O)CC(=O)c1ccc(Cl)cc1 [Compound 1-13] | 50% | 50% | 40% | 100% | 70% | 100% | 80% | 70% | 100% | 70% | 10% | 50% |  |  |  |  |  |
| COc1c(Cl)cc(F)c(-c2nn(C)c(OC(F)F)c2Cl)c1NC1CCCC1 [Compound 1-60] | 70% | 100% | 0% | 100% | 10% | 95% | 0% | 80% | 100% | 0% | 30% |  |  |  |  |  |  |
| Cn1nc(-c2c(F)cc(Cl)c(OC(F)F)c2N)c(Cl)c1OC(F)F [Compound 1-81, 3-chloro-6-[4-chloro-5-(difluoromethoxy)-1-methyl-1H-pyrazol-3-yl]-2-(difluoromethoxy)-5-fluorobenzenamine] |  |  | 10% |  | 100% | 100% | 90% |  |  | 20% | 35% | 60% | 80% | 100% | 100% | 100% | 100% |
| COc1c(Cl)cc(F)c(-c2nn(C)c(OC(F)F)c2Cl)c1NC(=O)C=C(C)C [Compound 1-9] | 90% | 70% | 70% | 100% | 98% | 100% | 80% | 98% | 100% | 80% | 30% | 70% |  |  |  |  |  |
| COc1c(Cl)cc(F)c(-c2nn(C)c(OC(F)F)c2Cl)c1N(C)C=O [Compound 1-6] | 90% | 95% | 30% | 100% | 100% | 100% | 20% | 70% | 100% | 20% | 50% |  |  |  |  |  |  |
| CNc1c(OC)c(Cl)cc(F)c1-c1nn(C)c(OC(F)F)c1Cl [Compound 1-58] | 95% | 100% | 0% | 100% | 100% | 100% | 100% | 100% | 100% | 60% | 70% |  |  |  |  |  |  |
